The target of series [1] is T1, SET/WRAD2 complex (Homo sapiens, UniProt O14686).
T1 construct: expressing amino acids 5308-5537 of the hKMT2D catalytic SET domain; 6xHis + TEV site (N, cleaved yes); made in house; host or cells: KMT2D Win-SET: Sf21 (baculovirus); H3 peptides bought from Chinese Peptide Company
Nature of the series: Product and dead-end inhibitor studies, MTase-Glo. The format is biochemical. More on the design: key to inhibition pattern: C = competitive; NC = noncompetitive; UC = uncompetitive. Here is the method: (§1) SET domain activity was monitored with a quantitative endpoint assay determining AdoHcy production using MTase-Glo by Promega.[39] Assays were performed as time courses at room temperature with buffer constituents, 50 mM Tris, pH 7.5, 50 mM NaCl, 1 mM DTT, 1% DMSO, and 0.005% w/v Triton X-100 in deionized water. […] Addition of 1 μL of 0.5% v/v TFA was used to stop the methylation reaction at defined time points; 1 μL of 6× concentrated MTase-Glo reagent was added to each well and incubated at room temperature. After 30 min, 6 μL of the prefiltered MTase-Glo detection reagent was added and incubated for a further 30 min at room temperature. Luminescence was measured using an Envision 2101 Multilabel plate reader, and product concentrations were calculated using an AdoHcy standard curve. Steady-state rates were obtained by plotting AdoHcy production over time and normalized to SET domain concentration. Experiments were performed in triplicate and expressed as the mean ± SD. Data were analyzed using nonlinear regression in GraphPad Prism v9.1.
Steady-state rates were measured in substrate-inhibitor matrix experiments. Dead-end inhibitor experiments were performed with the second substrate fixed at KM, while product inhibitor experiments fixed the second substrate at KM or 20× KM. Assays using 20× KM AdoMet used a cofactor adjusted to pH 7.5. […] Steady-state rates were globally fitted to competitive, uncompetitive, and noncompetitive inhibition (eqs 6, 7, and 8, respectively).
Competitive inhibition [drawing 6] 6 Uncompetitive inhibition [drawing 7] 7 Noncompetitive inhibition [drawing 8] 8 Mixed inhibition [drawing 9] 9 where ν is the initial rate, Vmax is the maximum velocity of the uninhibited reaction, [S] is the substrate concentration of the varied substrate, [I] is the inhibitor concentration, KM is the Michaelis–Menten constant, and Ki is the inhibition constant. To resolve any ambiguities in assigning inhibition type, the mixed inhibition model was used (eq 9), to derive the value of α, which is a measure of competitive or uncompetitive nature.

The target of the next series is T2, hKMT2D SET domain (Homo sapiens, UniProt O14686).
T2 construct: expressing amino acids 5308-5537 of the hKMT2D catalytic SET domain; 6xHis + TEV site (N, cleaved yes); made in house; host or cells: KMT2D Win-SET: Sf21 (baculovirus); H3 peptides bought from Chinese Peptide Company
Nature of the series: WRAD2 titration: MTase-Glo steady-state substrate matrix experiments. As to conditions: eq 1, read-out: Kd^(AdoMet). The series is classed as biochemical. Here is the method:
as §1
(§2) Steady-state rates were measured in substrate matrix experiments. Data were globally fitted to ternary Bi–Bi and Ping–Pong models to obtain kcat and KM parameters (eqs 1 and 2).
The ternary Bi–Bi model [drawing 1] 1 The Ping–Pong model [drawing 2] 2 where ν is the initial rate, Vmax is the maximum velocity, [A] is the concentration of the varied substrate, [B] the concentration of the fixed substrate, KM^A and KM^B are the Michaelis constants of the varied and fixed substrates, respectively, and Kd is the dissociation constant of the varied substrate. […]

Series [2] has as its target T1, SET/WRAD2 complex. The series is described as follows: Steady-state substrate specificity (peptide and nucleosome substrates), MTase-Glo. The format is biochemical. The protocol:
as §1, §2
Target sequence in this assay (Q15291 whole entry, the tested form may be a part): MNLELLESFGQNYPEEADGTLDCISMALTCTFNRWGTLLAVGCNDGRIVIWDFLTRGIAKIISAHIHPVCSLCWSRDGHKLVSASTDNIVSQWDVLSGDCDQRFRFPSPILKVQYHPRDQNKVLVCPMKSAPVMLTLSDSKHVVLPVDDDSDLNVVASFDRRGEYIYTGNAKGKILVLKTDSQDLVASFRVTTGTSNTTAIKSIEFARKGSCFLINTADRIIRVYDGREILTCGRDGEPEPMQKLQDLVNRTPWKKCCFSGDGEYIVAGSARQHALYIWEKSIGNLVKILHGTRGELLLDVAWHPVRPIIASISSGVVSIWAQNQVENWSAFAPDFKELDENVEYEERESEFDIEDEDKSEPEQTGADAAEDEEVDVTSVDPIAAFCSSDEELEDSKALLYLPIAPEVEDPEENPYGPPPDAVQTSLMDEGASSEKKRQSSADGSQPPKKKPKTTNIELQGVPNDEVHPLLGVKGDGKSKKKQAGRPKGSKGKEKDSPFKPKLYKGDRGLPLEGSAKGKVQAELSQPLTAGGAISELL
Target sequence in this assay (Q9UBL3 95-628, further chain): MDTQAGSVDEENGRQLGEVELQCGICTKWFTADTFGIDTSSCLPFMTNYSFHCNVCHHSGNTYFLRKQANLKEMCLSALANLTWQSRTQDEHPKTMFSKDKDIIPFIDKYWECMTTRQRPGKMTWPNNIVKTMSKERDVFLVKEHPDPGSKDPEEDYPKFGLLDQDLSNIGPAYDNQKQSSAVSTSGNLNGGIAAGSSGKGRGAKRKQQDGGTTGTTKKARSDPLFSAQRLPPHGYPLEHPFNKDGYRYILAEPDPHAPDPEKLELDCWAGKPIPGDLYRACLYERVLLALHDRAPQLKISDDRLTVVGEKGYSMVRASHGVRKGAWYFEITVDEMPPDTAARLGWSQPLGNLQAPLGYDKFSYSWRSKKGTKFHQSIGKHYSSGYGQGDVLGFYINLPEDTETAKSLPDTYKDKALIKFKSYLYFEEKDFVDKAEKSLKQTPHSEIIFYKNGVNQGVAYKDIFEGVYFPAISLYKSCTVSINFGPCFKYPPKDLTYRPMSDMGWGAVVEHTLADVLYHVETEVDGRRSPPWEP
Target sequence in this assay (Q9C005 whole entry, further chain, the tested form may be a part): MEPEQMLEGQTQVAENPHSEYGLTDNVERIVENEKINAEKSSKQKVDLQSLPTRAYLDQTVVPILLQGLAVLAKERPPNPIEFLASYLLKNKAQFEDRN
Target sequence in this assay (O14686 5361-5537): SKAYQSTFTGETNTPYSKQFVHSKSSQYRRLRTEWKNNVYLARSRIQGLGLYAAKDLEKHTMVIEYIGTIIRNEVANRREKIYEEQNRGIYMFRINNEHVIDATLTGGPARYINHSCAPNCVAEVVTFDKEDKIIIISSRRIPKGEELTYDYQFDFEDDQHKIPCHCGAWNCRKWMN
The ternary Bi–Bi model [drawing 1] 1 The Ping–Pong model [drawing 2] 2 where ν is the initial rate, Vmax is the maximum velocity, [A] is the concentration of the varied substrate, [B] the concentration of the fixed substrate, KM^A and KM^B are the Michaelis constants of the varied and fixed substrates, respectively, and Kd is the dissociation constant of the varied substrate.

Series [3] has as its target T3, SET/Ash2L/RbBP5 minimal complex (Homo sapiens, UniProt O14686).
T3 construct: 6xHis + TEV site (N); made in house; RbBP5 peptide synthetic, Chinese Peptide Company
Nature of the series: Substrate matrix experiment with the minimal complex, MTase-Glo. The series is classed as biochemical. As to conditions: read-out: Kd^(AdoMet). Here is the method: as §1
The ternary Bi–Bi model [drawing 1] 1 The Ping–Pong model [drawing 2] […]

Series [4] addresses T4, His-SET (5382–5537) + ASH2L (380-496-ISGRGS-539-598) + RbBP5 peptide (Homo sapiens, UniProt O14686).
T4 construct: made in house; RbBP5 peptide synthetic, Chinese Peptide Company
The series is described as follows: SPR binding assays (steady-state affinity). As to conditions: minimal complex; 1:1 interaction model.
Procedure: Surface plasmon resonance experiments were performed using a T200 instrument (Cytiva) equipped with a research-grade NTA sensor S chip (Cytiva) at 20 °C. For immobilization, the instrument was primed with a buffer composed of 10 mM HEPES, pH 7.5, 150 mM NaCl, 0.5 mM TCEP, and 0.05% Tween 20. The NTA chip was conditioned with three 2 min injections of 50 mM NaOH/1 M NaCl and a 2 min injection of 250 mM EDTA. Protein and reference flow cells were then prepared by a 2 min injection of 1 mM NiCl2 and a 7 min injection of 0.2 M EDC/ 0.05 M NHS. Immediately, the protein (500 nM His-SET (5382–5537) + ASH2L (380-496-ISGRGS-539-598) + RbBP5 peptide in immobilization buffer) was injected over the measurement flow cell to the desired RU level, followed by deactivation with a 7 min injection of 1 M ethanolamine pH 8 of all flow cells. For binding measurements, the system was then primed in a running buffer consisting of 50 mM Tris pH 7.5, 150 mM NaCl, 1 mM TCEP, 1–2% DMSO, and 0.05% Tween 20. […] Data processing included solvent correction and blank subtraction. The steady-state data were analyzed using Biaevaluation/Insight Software 1.1 (GE Healthcare/Cytiva) using an implemented 1:1 interaction model.

Series [5] deals with hKMT2D SET domain (Win-SET protein that lost the Win motif by proteolysis) (human) (UniProt O14686).
The target is the same in series [6]. This is another data set of the same source.
The test system of series [7] is C[S+](CC[C@H](N)C(=O)[O-])C[C@H]1O[C@@H](n2cnc3c(N)ncnc32)[C@H](O)[C@@H]1O. Nature of the series: Steady-state substrate specificity (peptide and nucleosome substrates), MTase-Glo. The series is classed as biochemical, human. As to conditions: other: WRAD2, eq 1, pH 7.5.
For series [8] the test system is unchanged. The series is described as follows: purified protein, by the assay type. The format is biochemical, human. As to conditions: pH 7.5.
[9] abbreviates: varied substrate AdoMet, fixed substrate at 20× KM.
[10] abbreviates: varied substrate AdoMet, fixed substrate at KM.
Setting [11] is: varied substrate H3_1–21, fixed substrate at KM.

Where two headings read alike, the source gives them in different places.

The results in this text go back to paper PMC9494746 (Biochemistry, 2022).

Sequence of hKMT2D SET domain (Win-SET protein that lost the Win motif by proteolysis) (human) (O14686 5362-5537): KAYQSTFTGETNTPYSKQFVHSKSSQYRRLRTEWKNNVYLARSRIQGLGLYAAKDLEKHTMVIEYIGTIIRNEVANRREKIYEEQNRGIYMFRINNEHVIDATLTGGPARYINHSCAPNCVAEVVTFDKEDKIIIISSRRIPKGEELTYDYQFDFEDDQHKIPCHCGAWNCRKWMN
T2 sequence (Q9UBL3 95-628): as the sequence (Q9UBL3 95-628, further chain) above
T2 sequence (Q9C005 whole entry, further chain, the tested form may be a part): as the sequence (Q9C005 whole entry, further chain, the tested form may be a part) above
T2 sequence (O14686 5361-5537): as the sequence (O14686 5361-5537) above
T2 sequence (Q15291 whole entry, further chain, the tested form may be a part): as the sequence (Q15291 whole entry, the tested form may be a part) above
Sequence of Ash2L (absent small or homoeotic 2-like), full length (Q9UBL3 whole entry): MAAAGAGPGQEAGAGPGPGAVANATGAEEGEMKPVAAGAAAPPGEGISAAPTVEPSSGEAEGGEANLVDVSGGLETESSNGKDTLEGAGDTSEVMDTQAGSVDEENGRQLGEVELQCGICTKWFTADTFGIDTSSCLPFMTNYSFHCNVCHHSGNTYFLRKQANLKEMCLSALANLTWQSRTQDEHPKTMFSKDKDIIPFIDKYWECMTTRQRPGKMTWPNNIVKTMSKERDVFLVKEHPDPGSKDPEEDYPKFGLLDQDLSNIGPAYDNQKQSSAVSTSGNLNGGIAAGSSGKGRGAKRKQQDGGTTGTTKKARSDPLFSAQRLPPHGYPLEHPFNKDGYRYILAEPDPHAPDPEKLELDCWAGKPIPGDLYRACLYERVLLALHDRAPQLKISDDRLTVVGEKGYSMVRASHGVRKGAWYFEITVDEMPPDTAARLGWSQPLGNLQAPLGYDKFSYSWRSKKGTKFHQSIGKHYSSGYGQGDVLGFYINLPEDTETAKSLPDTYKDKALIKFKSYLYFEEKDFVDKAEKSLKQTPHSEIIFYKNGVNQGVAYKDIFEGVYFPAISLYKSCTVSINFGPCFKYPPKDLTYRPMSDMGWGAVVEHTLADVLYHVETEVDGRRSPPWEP
T4 sequence (O14686 5382-5537): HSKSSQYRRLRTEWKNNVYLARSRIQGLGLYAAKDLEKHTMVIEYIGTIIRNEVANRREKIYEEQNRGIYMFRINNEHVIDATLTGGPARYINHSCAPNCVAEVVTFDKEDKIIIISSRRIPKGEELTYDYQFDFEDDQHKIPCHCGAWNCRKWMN
T3 sequence (O14686 5382-5537, one chain of several): as the sequence (O14686 5382-5537) above
Sequence of RbBP5 (retinoblastoma-binding protein), full length (Q15291 whole entry): as the sequence (Q15291 whole entry, the tested form may be a part) above

The Ki is a measure of affinity in units of concentration, obtained from inhibition or displacement. With `Nc1ncnc2c1ncn2[C@@H]1O[C@H](CSCC[C@H](N)C(=O)O)[C@@H](O)[C@H]1O` [AdoHcy, S-adenosyl-L-homocysteine], the Ki on SET/WRAD2 complex [1] (setting [9]) came to 2.29 ± 0.2 µM; on SET/WRAD2 complex [1] (setting [10]), 4.95 ± 0.62 µM; on SET/WRAD2 complex [1] (setting [11]), 5.38 ± 0.41 µM. Besides, the inhibition pattern result is recorded as “C” at SET/WRAD2 complex [1] (setting [9]); “C” on SET/WRAD2 complex [1] (setting [10]); “no inhibition” on SET/WRAD2 complex [1] (varied substrate H3_1–21, fixed substrate at 20× KM); “NC” on SET/WRAD2 complex [1] (setting [11]). Also, the “α (mixed inhibition model)” value was 6.8 on SET/WRAD2 complex [1] (setting [9]), over 1000 on SET/WRAD2 complex [1] (setting [10]) and 0.56 at SET/WRAD2 complex [1] (setting [11]).

For orientation: Kd means the concentration at which binding is half-saturated. In the case of `C[S+](CC[C@H](N)C(=O)[O-])C[C@H]1O[C@@H](n2cnc3c(N)ncnc32)[C@H](O)[C@@H]1O` (stereo partly drawn) [AdoMet, S-adenosyl-L-methionine], the Kd on hKMT2D SET domain ([WRAD2] 0 nM, [SET] 125 nM) came to 5.93 ± 1.2 µM; at hKMT2D SET domain ([WRAD2] 0.125 nM, [SET] 125 nM) it was 4.99 ± 1.5 µM; at hKMT2D SET domain ([WRAD2] 0.5 nM, [SET] 125 nM) it was 2.93 ± 0.6 µM; on hKMT2D SET domain ([WRAD2] 1 nM, [SET] 125 nM), 1.61 ± 0.58 µM; on hKMT2D SET domain ([WRAD2] 2 nM, [SET] 125 nM), 0.61 ± 0.36 µM; at hKMT2D SET domain ([WRAD2] 4 nM, [SET] 125 nM), 0.65 ± 0.38 µM. Moreover, the Kd on hKMT2D SET domain ([WRAD2] 6.25 nM, [SET] 30 nM) was 1.54 ± 0.36 µM; at hKMT2D SET domain ([WRAD2] 10 nM, [SET] 30 nM) it was 1.42 ± 0.56 µM; on hKMT2D SET domain ([WRAD2] 15 nM, [SET] 30 nM) it was 0.99 ± 0.3 µM; on hKMT2D SET domain ([WRAD2] 25 nM, [SET] 30 nM, substrate H3_1–21) it was 0.85 ± 0.48 µM; on hKMT2D SET domain ([WRAD2] 125 nM, [SET] 30 nM), 0.54 ± 0.31 µM; on hKMT2D SET domain ([WRAD2] […], [SET] 125 nM), 5.02 ± 0.68 µM. Moreover, the Kd was 3.76 ± 0.49 µM on SET/WRAD2 complex [2] (eq 1, substrate Me1H3_1–21, read-out: Kd^(AdoMet)); 0.04 µM at SET/WRAD2 complex [2] (eq 1, substrate Me2H3_1–21, read-out: Kd^(AdoMet)); 7.63 ± 0.46 µM in series [3]; 9 ± 2 µM in series [4].

Take `Nc1ncnc2c1ncn2[C@@H]1O[C@H](C[C@@H](N)CC[C@H](N)C(=O)O)[C@@H](O)[C@H]1O` [sinefungin]: at SET/WRAD2 complex [1] (setting [10]), the Ki is 11 ± 0.46 µM, the inhibition pattern entry is reported as “C” and the “α (mixed inhibition model)” value was 21.1. In addition, at SET/WRAD2 complex [1] (setting [11]), the Ki turned out to be 10.3 ± 0.79 µM, the inhibition pattern entry is “UC” and the “α (mixed inhibition model)” value was 0.16.

The molecule “Ash2L (absent small or homoeotic 2-like), full length (from UniProt Q9UBL3 1-628) (natural protein)” came in with an H3 1-21 affinity (KM) of the SET domain with Ash2L alone, 1:1, 5 μM AdoMet in series [5] of 2 fold. Further, the Kd assigned to Ash2L from the WRAD2 titration of H3 1-21 affinity (steady-state kinetics) in series [6] came to 0.004 µM.

In [6], “RbBP5 (retinoblastoma-binding protein), full length (from UniProt Q15291 1-538) (natural protein)” registered a Kd assigned to RbBP5 from the WRAD2 titration of kcat (steady-state kinetics) of 0.012 µM.

As usually defined, the Km is the concentration of substrate that gives half-maximal velocity. Turning to SET/WRAD2 complex (Homo sapiens), the Km in series [7] (substrate Me1H3_1–21) is 5.22 ± 0.32 µM; in [7] (substrate Me2H3_1–21) it was 3.48 ± 0.36 µM.

In the case of hKMT2D SET domain (Homo sapiens), the Km in series [8] (other: 25 nM WRAD2, Ping–Pong model eq 2, substrate H3_1–21) came to 5.10 ± 0.32 µM; in [8] (other: [WRAD2] 0 nM, [SET] 125 nM, eq 1) it was 5.38 ± 1.0 µM; in series [8] (other: [WRAD2] 0.125 nM, [SET] 125 nM, eq 1), 5.48 ± 1.25 µM; in [8] (other: [WRAD2] 0.5 nM, [SET] 125 nM, eq 1), 3.61 ± 0.51 µM; in [8] (other: [WRAD2] 1 nM, [SET] 125 nM, eq 1) it was 4.55 ± 0.62 µM; in series [8] (other: [WRAD2] 2 nM, [SET] 125 nM, eq 1) it was 4.18 ± 0.50 µM. For the same molecule, the Km came out at 2.36 ± 0.28 µM in [8] (other: [WRAD2] 4 nM, [SET] 125 nM, eq 1); 3.07 ± 0.16 µM in [8] (other: [WRAD2] 6.25 nM, [SET] 30 nM, eq 1); 3.89 ± 0.33 µM in [8] (other: [WRAD2] 10 nM, [SET] 30 nM, eq 1); 4.77 ± 0.22 µM in series [8] (other: [WRAD2] 15 nM, [SET] 30 nM, eq 1); 4.65 ± 0.34 µM in [8] (other: [WRAD2] 25 nM, [SET] 30 nM, eq 1, substrate H3_1–21); 4.71 ± 0.25 µM in series [8] (other: [WRAD2] 125 nM, [SET] 30 nM, eq 1). In series [8] (other: [WRAD2] […], [SET] 125 nM, eq 1), the Km was 6.28 ± 0.65 µM.
